Broadly, the IC50 is the point on the concentration scale where inhibition reaches its midpoint. Higher therefore signals weaker potency.

The values below come from ChEMBL document CHEMBL5505977, “Discovery of novel pyrrolo[2,3-d]pyrimidines as potent menin-mixed lineage leukemia interaction inhibitors” (Eur J Med Chem, 2024).

Series [1] has as its target T1, Menin/Histone-lysine N-methyltransferase MLL (Homo sapiens, UniProt O00255). Kind of series: Inhibition of human menin-MLL (unknown origin) protein-protein interaction incubated for 0.5 to 4 hrs by TR-FRET assay. (TR-FRET usually uses a lanthanide donor and a delayed reading to cut background.)
Series [2] addresses T1, Menin/Histone-lysine N-methyltransferase MLL. Kind of series: Inhibition of human menin-MLL (unknown origin) protein-protein interaction by fluorescence polarization assay. A general note: In fluorescence polarisation assays a small probe gives low polarisation when free and higher when bound to something large.
Series [3] concerns MV4-11. Description: Antiproliferative activity against human MV4-11 cells incubated for 7 days by PrestoBlue Cell Viability assay. The class given is functional, cell-based. Conditions: MV4-11, 168 h.
The target of series [4] is Voltage-gated inwardly rectifying potassium channel KCNH2 (Homo sapiens, UniProt Q12809). Description: Inhibition of human ERG expressed in CHO cells by Q-patch clamp assay. The format is toxicity, cell-based.
A further series concerns the target T2, Menin (Homo sapiens, UniProt O00255).
T2 sequence (O00255 whole entry): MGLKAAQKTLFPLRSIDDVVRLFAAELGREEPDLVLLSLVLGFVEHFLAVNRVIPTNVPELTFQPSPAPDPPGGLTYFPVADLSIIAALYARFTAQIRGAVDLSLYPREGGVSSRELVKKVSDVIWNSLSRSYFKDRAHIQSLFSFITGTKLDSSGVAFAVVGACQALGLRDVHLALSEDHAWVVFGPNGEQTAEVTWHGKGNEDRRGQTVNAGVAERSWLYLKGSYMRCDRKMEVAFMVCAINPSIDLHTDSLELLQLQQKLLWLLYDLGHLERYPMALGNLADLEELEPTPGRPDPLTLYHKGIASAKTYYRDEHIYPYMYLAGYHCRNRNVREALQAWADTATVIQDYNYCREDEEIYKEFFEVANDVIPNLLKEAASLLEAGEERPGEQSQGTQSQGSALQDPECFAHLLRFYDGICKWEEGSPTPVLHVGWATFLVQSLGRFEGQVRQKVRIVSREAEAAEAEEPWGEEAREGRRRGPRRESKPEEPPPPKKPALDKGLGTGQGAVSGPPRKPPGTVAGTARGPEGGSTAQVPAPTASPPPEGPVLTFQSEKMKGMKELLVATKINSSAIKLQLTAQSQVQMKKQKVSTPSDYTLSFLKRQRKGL
Kind of series: Binding affinity to menin (unknown origin) incubated for 1 hr by fluorescence polarization assay.

Another series relates to HL-60. Description: Antiproliferative activity against human HL-60 cells incubated for 72 hrs by MTT assay. Conditions: HL-60, 72 h. The class given is functional, cell-based. Background: Formazan colour is commonly taken as a measure of viable cells.
The subject of another series is SU-DHL-6. Description: Antiproliferative activity against human SU-DHL-6 cells incubated for 72 hrs by MTT assay. The class given is functional, cell-based. Particulars: SU-DHL-6, 72 h.
A further series concerns Pfeiffer. Description: Antiproliferative activity against human Pfeiffer cells incubated for 72 hrs by MTT assay. The class given is functional, cell-based.
Another series deals with Raji. Kind of series: Antiproliferative activity against human Raji cells incubated for 72 hrs by MTT assay. The format is functional, cell-based.
The next series relates to Ramos. Kind of series: Antiproliferative activity against human Ramos cells incubated for 72 hrs by MTT assay. The format is functional, cell-based.
The test system of a further series is HCT-116. Description: Antiproliferative activity against human HCT-116 cells incubated for 72 hrs by MTT assay. Particulars: HCT-116, 72 h. The format is functional, cell-based.
Another series has as its system MCF7. Description: Antiproliferative activity against human MCF7 cells incubated for 72 hrs by MTT assay. The class given is functional, cell-based. Conditions: MCF7, 72 h.
Series [5] can be described thus: Antiproliferative activity against human NCM460 cells incubated for 72 hrs by MTT assay. The class given is toxicity, cell-based.
Series [6] concerns MV4-11. Description: Induction of apoptosis in human MV4-11 cells assessed as viable cells at 1 uM incubated for 24 hrs by FITC Annexin-V/PI staining based flow cytometry analysis (reference value: 94.27%). The class given is functional. Conditions: read-out: Activity.
For series [7], the system named is MV4-11. Description: Induction of apoptosis in human MV4-11 cells assessed as early apoptotic cells at 1 uM incubated for 24 hrs by FITC Annexin-V/PI staining based flow cytometry analysis (reference value: 2.68%). The class given is functional.
Series [8] relates to MV4-11. Kind of series: Induction of apoptosis in human MV4-11 cells assessed as late apoptotic cells at 1 uM incubated for 24 hrs by FITC Annexin-V/PI staining based flow cytometry analysis (reference value: 3%). The class given is functional.
Series [9] relates to MV4-11. Description: Induction of apoptosis in human MV4-11 cells assessed as necrotic cells at 1 uM incubated for 24 hrs by FITC Annexin-V/PI staining based flow cytometry analysis (reference value: 0.04%). The class given is functional.
Series [10] relates to MV4-11. Kind of series: Induction of apoptosis in human MV4-11 cells assessed as viable cells at 10 uM incubated for 24 hrs by FITC Annexin-V/PI staining based flow cytometry analysis (reference value: 94.27%). The class given is functional. Particulars: read-out: Activity.
Series [11] deals with MV4-11. Kind of series: Induction of apoptosis in human MV4-11 cells assessed as early apoptotic cells at 10 uM incubated for 24 hrs by FITC Annexin-V/PI staining based flow cytometry analysis (reference value: 2.68%). The format is functional.
For series [12], the system named is MV4-11. Kind of series: Induction of apoptosis in human MV4-11 cells assessed as late apoptotic cells at 10 uM incubated for 24 hrs by FITC Annexin-V/PI staining based flow cytometry analysis (reference value: 3%). The class given is functional.
The test system of series [13] is MV4-11. Kind of series: Induction of apoptosis in human MV4-11 cells assessed as necrotic cells at 10 uM incubated for 24 hrs by FITC Annexin-V/PI staining based flow cytometry analysis (reference value: 0.04%). The class given is functional.
Series [14] deals with MV4-11. Description: Induction of apoptosis in human MV4-11 cells assessed as viable cells at 0.1 uM incubated for 24 hrs by FITC Annexin-V/PI staining based flow cytometry analysis (reference value: 94.27%). The class given is functional. Conditions: read-out: Activity.
The subject of series [15] is MV4-11. Kind of series: Induction of apoptosis in human MV4-11 cells assessed as early apoptotic cells at 0.1 uM incubated for 24 hrs by FITC Annexin-V/PI staining based flow cytometry analysis (reference value: 2.68%). The format is functional.
Series [16] relates to MV4-11. Description: Induction of apoptosis in human MV4-11 cells assessed as late apoptotic cells at 0.1 uM incubated for 24 hrs by FITC Annexin-V/PI staining based flow cytometry analysis (reference value: 3%). The format is functional.
Series [17] concerns MV4-11. Kind of series: Induction of apoptosis in human MV4-11 cells assessed as necrotic cells at 0.1 uM incubated for 24 hrs by FITC Annexin-V/PI staining based flow cytometry analysis (reference value: 0.04%). The format is functional.
Series [18] concerns MV4-11. Description: Induction of cell cycle arrest in human MV4-11 cells assessed as accumulation of cells at G0/G1 phase incubated for 24 hrs by PI/RNase staining based flow cytometry analysis. Particulars: dose 0.1-10 µM. The format is functional.
For series [19], the system named is MV4-11. Kind of series: Effect on cell differentiation in human MV4-11 cells assessed as decrease in HOXA9 expression level incubated for 48 hrs by qPCR analysis. The class given is functional, cell-based.
Series [20] has as its system MV4-11. Kind of series: Effect on cell differentiation in human MV4-11 cells assessed as decrease in HOXA9 expression level at 0.5 uM by qPCR analysis. The class given is functional, cell-based. Conditions: time 24-48 hrs, TDE = time-dependent effect.
The test system of series [21] is MV4-11. Description: Effect on cell differentiation in human MV4-11 cells assessed as decrease in MEIS1 expression level incubated for 48 hrs by qPCR analysis. The class given is functional, cell-based.
Series [22] concerns MV4-11. Kind of series: Effect on cell differentiation in human MV4-11 cells assessed as decrease in MEIS1 expression level at 0.5 uM by qPCR analysis. Conditions: time 24-48 hrs, TDE = time-dependent effect. The format is functional, cell-based.
The test system of series [23] is MV4-11. Description: Effect on cell differentiation in human MV4-11 cells assessed as assessed as increase in CD11b protein expression at M2-1 at 1 uM incubated for 7 days by flow cytometry analysis (reference value: 86.12%). The class given is functional. Particulars: time 7 day.
Series [24] deals with MV4-11. Kind of series: Effect on cell differentiation in human MV4-11 cells assessed as assessed as increase in CD11b protein expression at M2-2 at 1 uM incubated for 7 days by flow cytometry analysis (reference value: 13.86%). The format is functional. Particulars: time 7 day.
For series [25], the system named is MV4-11. Kind of series: Effect on cell differentiation in human MV4-11 cells assessed as assessed as increase in CD11b protein expression at M2-1 at 10 uM incubated for 7 days by flow cytometry analysis (reference value: 86.12%). The format is functional. Conditions: time 7 day.
Series [26] has as its system MV4-11. Kind of series: Effect on cell differentiation in human MV4-11 cells assessed as assessed as increase in CD11b protein expression at M2-2 at 10 uM incubated for 7 days by flow cytometry analysis (reference value: 13.86%). The format is functional. Conditions: time 7 day.
In series [27] the test system is MV4-11. Kind of series: Effect on cell differentiation in human MV4-11 cells assessed as assessed as increase in CD11b protein expression at M2-1 at 0.1 uM incubated for 7 days by flow cytometry analysis (reference value: 86.12%). Particulars: time 7 day. The class given is functional.
Series [28] deals with MV4-11. Description: Effect on cell differentiation in human MV4-11 cells assessed as assessed as increase in CD11b protein expression at M2-2 at 0.1 uM incubated for 7 days by flow cytometry analysis (reference value: 13.86%). The class given is functional. Conditions: time 7 day.
The test system of series [29] is MV4-11. Kind of series: cells. Particulars: Homo sapiens, MV4-11, 72 h.
Description: Antiproliferative activity against human MV4-11 cells incubated for 72 hrs by MTT assay

Some results are limits rather than exact numbers.

T1 sequence (Q03164 1-2718 partner limits assumed, one chain of several): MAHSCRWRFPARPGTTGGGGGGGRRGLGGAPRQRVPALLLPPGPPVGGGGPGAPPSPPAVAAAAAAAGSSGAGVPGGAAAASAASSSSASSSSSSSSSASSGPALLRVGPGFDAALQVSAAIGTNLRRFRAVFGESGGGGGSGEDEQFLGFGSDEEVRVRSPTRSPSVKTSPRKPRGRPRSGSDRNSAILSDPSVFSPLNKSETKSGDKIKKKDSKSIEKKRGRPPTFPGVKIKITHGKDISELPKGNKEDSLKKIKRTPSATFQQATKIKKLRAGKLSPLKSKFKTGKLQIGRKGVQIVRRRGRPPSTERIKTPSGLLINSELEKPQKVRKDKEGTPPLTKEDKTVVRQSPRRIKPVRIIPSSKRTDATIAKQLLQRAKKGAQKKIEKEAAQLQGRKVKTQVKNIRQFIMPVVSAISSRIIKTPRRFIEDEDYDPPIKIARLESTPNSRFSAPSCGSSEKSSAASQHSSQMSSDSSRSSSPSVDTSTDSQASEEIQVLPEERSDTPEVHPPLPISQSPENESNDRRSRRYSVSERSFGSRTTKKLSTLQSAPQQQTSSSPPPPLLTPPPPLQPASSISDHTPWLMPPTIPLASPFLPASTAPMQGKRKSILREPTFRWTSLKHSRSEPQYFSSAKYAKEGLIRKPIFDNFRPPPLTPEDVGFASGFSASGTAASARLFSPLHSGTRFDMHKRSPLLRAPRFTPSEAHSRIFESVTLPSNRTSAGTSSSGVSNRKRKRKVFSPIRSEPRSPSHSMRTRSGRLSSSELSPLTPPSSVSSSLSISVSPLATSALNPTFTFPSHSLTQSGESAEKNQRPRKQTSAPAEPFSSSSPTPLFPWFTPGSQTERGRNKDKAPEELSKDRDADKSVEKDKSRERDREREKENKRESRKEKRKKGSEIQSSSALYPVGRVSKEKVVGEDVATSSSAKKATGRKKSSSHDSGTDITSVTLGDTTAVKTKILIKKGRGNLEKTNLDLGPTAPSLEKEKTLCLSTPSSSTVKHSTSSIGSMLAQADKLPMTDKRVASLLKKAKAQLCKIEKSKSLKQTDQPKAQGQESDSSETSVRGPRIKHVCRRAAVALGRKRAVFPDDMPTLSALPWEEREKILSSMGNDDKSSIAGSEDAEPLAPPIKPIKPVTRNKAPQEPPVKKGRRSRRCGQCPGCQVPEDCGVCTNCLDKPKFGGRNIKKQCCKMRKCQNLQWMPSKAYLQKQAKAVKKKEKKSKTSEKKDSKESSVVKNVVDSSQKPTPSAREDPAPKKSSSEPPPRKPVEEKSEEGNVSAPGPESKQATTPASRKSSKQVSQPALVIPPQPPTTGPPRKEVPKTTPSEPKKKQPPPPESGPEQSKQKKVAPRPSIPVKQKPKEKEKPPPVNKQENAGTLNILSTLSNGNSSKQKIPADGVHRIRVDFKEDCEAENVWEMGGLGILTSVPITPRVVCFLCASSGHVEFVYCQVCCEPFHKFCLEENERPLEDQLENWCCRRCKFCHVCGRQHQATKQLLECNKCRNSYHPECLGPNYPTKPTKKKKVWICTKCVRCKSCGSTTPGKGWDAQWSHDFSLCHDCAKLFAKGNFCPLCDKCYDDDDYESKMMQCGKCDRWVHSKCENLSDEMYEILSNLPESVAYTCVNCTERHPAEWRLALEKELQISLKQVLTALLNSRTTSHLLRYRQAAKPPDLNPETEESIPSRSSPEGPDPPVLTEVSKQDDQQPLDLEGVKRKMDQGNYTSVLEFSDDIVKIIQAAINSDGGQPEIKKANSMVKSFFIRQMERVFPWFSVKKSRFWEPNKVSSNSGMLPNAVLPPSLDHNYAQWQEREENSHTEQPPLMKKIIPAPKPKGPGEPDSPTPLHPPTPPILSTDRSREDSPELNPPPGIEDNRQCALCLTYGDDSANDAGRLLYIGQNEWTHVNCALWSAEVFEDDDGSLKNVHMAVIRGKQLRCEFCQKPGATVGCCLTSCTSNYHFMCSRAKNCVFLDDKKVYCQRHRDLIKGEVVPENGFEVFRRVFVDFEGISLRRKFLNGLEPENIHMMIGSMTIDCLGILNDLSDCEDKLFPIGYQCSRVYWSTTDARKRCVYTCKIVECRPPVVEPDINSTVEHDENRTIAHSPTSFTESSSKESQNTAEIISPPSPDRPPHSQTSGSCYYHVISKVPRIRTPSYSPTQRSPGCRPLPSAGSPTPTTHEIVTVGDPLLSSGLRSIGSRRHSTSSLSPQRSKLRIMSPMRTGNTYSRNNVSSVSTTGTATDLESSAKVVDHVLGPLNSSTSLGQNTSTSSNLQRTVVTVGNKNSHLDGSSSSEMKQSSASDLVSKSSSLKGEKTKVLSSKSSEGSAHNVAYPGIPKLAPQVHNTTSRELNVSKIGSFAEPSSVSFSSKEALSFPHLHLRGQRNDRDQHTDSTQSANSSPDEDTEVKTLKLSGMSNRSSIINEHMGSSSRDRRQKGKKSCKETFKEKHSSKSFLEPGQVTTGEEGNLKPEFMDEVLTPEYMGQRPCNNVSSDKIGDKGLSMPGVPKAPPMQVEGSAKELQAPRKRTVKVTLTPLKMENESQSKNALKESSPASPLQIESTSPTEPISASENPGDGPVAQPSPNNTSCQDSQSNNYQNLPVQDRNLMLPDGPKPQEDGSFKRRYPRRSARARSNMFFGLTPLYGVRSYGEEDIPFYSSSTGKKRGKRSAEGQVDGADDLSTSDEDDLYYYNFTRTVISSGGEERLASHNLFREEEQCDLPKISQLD
T1 sequence (Q03164 2719-3969 partner limits assumed, one chain of several): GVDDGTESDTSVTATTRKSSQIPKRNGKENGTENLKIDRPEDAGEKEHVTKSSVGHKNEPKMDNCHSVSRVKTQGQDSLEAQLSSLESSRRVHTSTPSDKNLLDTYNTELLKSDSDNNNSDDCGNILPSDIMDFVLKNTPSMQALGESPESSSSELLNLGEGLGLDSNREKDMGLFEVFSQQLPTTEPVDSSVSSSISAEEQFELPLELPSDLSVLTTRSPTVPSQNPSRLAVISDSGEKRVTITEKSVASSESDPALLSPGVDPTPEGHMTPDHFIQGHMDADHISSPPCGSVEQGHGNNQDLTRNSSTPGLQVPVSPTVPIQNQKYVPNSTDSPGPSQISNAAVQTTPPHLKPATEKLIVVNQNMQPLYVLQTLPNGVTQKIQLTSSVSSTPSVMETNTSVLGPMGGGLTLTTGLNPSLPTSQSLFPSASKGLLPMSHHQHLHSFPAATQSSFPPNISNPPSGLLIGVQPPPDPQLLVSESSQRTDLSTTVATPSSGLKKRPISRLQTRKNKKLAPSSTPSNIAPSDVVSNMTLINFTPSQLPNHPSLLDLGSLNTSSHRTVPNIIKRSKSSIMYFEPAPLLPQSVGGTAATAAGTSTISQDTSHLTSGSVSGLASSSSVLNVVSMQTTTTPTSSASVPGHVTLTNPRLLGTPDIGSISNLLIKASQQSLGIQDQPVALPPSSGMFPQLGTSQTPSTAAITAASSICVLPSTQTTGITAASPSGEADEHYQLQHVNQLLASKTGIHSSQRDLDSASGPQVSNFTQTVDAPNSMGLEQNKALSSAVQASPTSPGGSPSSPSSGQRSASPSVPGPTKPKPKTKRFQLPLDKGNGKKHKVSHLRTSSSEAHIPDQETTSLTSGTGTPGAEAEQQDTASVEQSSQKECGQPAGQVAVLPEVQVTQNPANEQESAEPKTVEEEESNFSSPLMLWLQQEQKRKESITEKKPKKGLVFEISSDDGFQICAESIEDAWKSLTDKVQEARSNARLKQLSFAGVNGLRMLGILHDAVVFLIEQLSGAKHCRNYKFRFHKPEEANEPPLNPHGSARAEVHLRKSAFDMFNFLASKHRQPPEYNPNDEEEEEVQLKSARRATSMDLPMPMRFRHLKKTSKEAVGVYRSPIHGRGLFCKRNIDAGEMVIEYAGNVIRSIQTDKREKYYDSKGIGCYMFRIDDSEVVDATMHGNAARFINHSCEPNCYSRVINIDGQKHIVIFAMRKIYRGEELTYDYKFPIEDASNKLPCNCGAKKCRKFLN
Sequence of Voltage-gated inwardly rectifying potassium channel KCNH2 (Q12809 whole entry): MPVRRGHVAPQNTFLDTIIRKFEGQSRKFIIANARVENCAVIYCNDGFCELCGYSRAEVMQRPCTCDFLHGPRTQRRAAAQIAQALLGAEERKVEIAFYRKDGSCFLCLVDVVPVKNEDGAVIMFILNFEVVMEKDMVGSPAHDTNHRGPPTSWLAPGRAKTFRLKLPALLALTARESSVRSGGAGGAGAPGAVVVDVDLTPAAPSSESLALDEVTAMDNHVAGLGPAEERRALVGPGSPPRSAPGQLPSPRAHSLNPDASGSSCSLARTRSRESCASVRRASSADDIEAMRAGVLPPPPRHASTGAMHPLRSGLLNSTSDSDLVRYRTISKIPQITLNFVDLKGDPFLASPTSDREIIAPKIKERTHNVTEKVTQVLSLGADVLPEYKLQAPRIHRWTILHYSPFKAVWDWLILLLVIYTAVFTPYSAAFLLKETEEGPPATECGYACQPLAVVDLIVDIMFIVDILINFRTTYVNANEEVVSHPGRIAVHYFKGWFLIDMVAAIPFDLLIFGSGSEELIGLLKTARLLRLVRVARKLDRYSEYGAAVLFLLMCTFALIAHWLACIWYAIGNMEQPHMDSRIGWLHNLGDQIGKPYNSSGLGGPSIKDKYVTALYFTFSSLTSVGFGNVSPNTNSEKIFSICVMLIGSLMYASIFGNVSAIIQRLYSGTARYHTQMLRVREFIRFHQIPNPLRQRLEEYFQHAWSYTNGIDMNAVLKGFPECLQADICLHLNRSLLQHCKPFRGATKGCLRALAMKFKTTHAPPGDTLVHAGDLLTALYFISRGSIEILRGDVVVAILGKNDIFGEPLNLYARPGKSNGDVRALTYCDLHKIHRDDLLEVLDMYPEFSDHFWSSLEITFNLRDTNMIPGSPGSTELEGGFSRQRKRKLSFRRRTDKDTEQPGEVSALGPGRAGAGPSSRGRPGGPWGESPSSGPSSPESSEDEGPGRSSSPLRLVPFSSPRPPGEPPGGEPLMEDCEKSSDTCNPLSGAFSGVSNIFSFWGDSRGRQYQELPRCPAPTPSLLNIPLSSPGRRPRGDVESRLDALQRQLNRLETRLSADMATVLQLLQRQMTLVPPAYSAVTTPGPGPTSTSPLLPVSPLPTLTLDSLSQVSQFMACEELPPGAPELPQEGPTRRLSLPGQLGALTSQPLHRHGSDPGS

In [1], `Cc1c(CN2CCC3(CC2)CN(c2ncnc4sc(CC(F)(F)F)cc24)C3)ccc2c1cc(C#N)n2CC(N)=O` came in with a concentration for half-maximal inhibition (IC50) of 0.008 µM.
`CNc1nc(NC2CCN(Cc3ccc4c(cc(C#N)n4CC45CC(NC=O)(C4)C5)c3C)CC2)c2cc(CC(F)(F)F)sc2n1` gave a concentration for half-maximal inhibition (IC50) in series [2] of 0.00051 µM.
For the compound `CC(C)N(C)C(=O)c1cc(F)ccc1-n1cc(C2CCN(C(=O)[C@H]3NC4CCC3CC4)CC2)c2ccncc21`, the IC50 was 0.073 µM in the series on MV4-11 [3] and > 100 µM in series [4].
For `N#Cc1ccc(N2CC(CN3CCC(n4cc(-c5ccc(F)cc5)c5c(N)ncnc54)CC3)C2)cc1`, the IC50 at Menin was 0.38 µM; in the series with HL-60, > 10 µM; in the series on SU-DHL-6, 6.87 µM; with Pfeiffer it was > 10 µM; in the series with Raji it was > 10 µM; in the series on Ramos, > 10 µM. Besides, the results for the IC50 with HCT-116, in the series on MCF7 and with MV4-11 [29] were > 10 µM, > 10 µM and 1.07 µM, respectively. For the same compound, the IC50 at 72 h in [5] was > 10 µM. In addition, the viability at 1 µM with MV4-11 [6] amounted to 91%. The Activity is on record as 4.53% with MV4-11 [7]; 4.23% in the series on MV4-11 [8]; 0.14% in the series on MV4-11 [9]; 8.52% in the series with MV4-11 [11]; 34.56% in the series on MV4-11 [12]; 1.09% in the series on MV4-11 [13]. In addition, the Activity in the series on MV4-11 [15] is 3.34%; in the series on MV4-11 [16] it was 2.75%; in the series on MV4-11 [17], 0.05%; with MV4-11 [18], “Dose-Dependent Effect”; in the series on MV4-11 [19] it was “Dose-Dependent Effect”; in the series on MV4-11 [20] it was “Tde”. In addition, the Activity result in the series on MV4-11 [21] is “Dose-Dependent Effect”; with MV4-11 [22] it was “Tde”; in the series on MV4-11 [23], 68.53%; in the series on MV4-11 [24] it was 31.47%; in the series with MV4-11 [25], 30.31%; in the series on MV4-11 [26], 69.67%. The Activity in the series with MV4-11 [27] was 85.59%; in the series on MV4-11 [28] it was 14.39%. Besides, the viability at 10 µM in the series on MV4-11 [10] came to 55.8%. Also, in the series on MV4-11 [14], the viability at 0.1 µM amounted to 93.9%.
